The test system of test [1] is Scleraxis (Scx) gene expression in rat tail tendon fascicles. In words: Ex vivo assay, Scx mRNA in tendon fascicles (qPCR). It is filed as cell-based, Sprague Dawley rat. (In general: Real-time PCR tracks product formation cycle by cycle.)
Test [2] deals with collagen type I (Col1a2) gene expression in rat tail tendon fascicles. As to the kind of experiment: Ex vivo assay, Col1a2 mRNA in tendon fascicles (qPCR). It is filed as cell-based, Sprague Dawley rat.
The test system of test [3] is Scleraxis (Scx) gene transcriptional activation in TT-D6 Scx-luciferase (ScxL) cell line. As to the kind of experiment: SCX-LUC in vitro assay (Scx-luciferase reporter). It is filed as cell-based. As to conditions: Mus musculus. For orientation: Reporter assays use an easily measured gene product as a stand-in for the process of interest.
Test [4] deals with Tenomodulin (Tnmd) gene expression in rat tail tendon fascicles. In words: Ex vivo assay, Tnmd mRNA in tendon fascicles (qPCR). Type of test: cell-based, Sprague Dawley rat.
For test [5], the target named is recombinant human Tyk2 (aa888-1187) (Homo sapiens (Human), UniProt P29597). In words: Kinase selectivity panel, substrate peptide phosphorylation (Caliper). Particulars: 45 uM ATP. It is filed as biochemical.
The mark [6] stands for this setting: 96 h, Table 3, four days, read-out: Ex vivo Scx (EC50 μM).
Setting [7] is: 96 h, Table 3, four days, read-out: Ex vivo Col1a2 (EC50 μM).
[8] abbreviates: 96 h, Table 3, four days, read-out: Scx-Luc (EC50 μM).
Where [9] appears, read: 96 h, Table 3, four days, read-out: Ex vivo Tnmd (EC50 μM).
[10] abbreviates: Table 1, read-out: Ex vivo SCX (EC50 uM).
The mark [11] stands for this setting: Table 1, read-out: Ex vivo Col1a2 (EC50 uM).
The mark [12] stands for this setting: Table 1, read-out: Scx-Luc (EC50 uM).
The mark [13] stands for this setting: Table 1, read-out: Ex vivo Tnmd (EC50 uM).
[14] abbreviates: read-out: Ex vivo SCX (EC50 uM).
The mark [15] stands for this setting: read-out: Ex vivo Col1a2 (EC50 uM).
The mark [16] stands for this setting: read-out: Ex vivo Tnmd (EC50 uM).

Where two headings read alike, the source gives them in different places.

Chain of recombinant human Tyk2 (aa888-1187) (P29597 888-1187): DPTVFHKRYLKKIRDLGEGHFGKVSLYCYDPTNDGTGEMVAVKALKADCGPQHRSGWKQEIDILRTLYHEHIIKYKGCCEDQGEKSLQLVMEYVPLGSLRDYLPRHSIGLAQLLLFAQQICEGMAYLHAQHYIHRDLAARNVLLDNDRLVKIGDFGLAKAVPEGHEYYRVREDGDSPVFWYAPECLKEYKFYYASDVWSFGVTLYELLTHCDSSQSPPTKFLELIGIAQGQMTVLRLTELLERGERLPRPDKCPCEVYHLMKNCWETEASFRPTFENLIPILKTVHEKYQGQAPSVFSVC

As for `Nc1n[nH]c2ccc(-c3ccc(S(=O)(=O)N[C@@H]4CCC[C@@H]4O)cc3Cl)c(Cl)c12` [Example 69, 4-(3-amino-4-chloro-1H-indazol-5-yl)-3-chloro-N-((1R,2S)-2-hydroxycyclopentyl)benzenesulfonamide], the EC50 (commonly the concentration at which the effect is half-maximal) turned out to be 1.05 µM in test [1] (setting [6]), 1.48 µM in test [2] (setting [7]), 0.148 µM in test [3] (setting [8]) and 3.84 µM in test [4] (setting [9]).

Take `Cc1cc(S(=O)(=O)N2CC(F)(F)C[C@H]2CO)ccc1-c1ccc2[nH]nc(N)c2c1Cl` [Example 54, (S)-(1-((4-(3-amino-4-chloro-1H-indazol-5-yl)-3-methylphenyl)sulfonyl)-4,4-difluoropyrrolidin-2-yl)methanol]: the EC50 in test [1] (setting [6]) worked out at 3.8 µM; in test [2] (setting [7]), 4.42 µM; in test [3] (setting [8]), 0.242 µM; in test [4] (setting [9]), 0.706 µM.

For `Cc1cc(S(=O)(=O)N[C@H]2C[C@](O)(C(F)(F)F)C2)ccc1-c1ccc2[nH]nc(N)c2c1Cl` [Example 37, 4-(3-amino-4-chloro-1H-indazol-5-yl)-N-((1s,3s)-3-hydroxy-3-(trifluoromethyl)cyclobutyl)-3-methylbenzenesulfonamide], the EC50 in test [1] (setting [6]) was 0.996 µM; in test [2] (setting [7]), 1.82 µM; in test [3] (setting [8]), 0.227 µM; in test [4] (setting [9]), 1.69 µM.

As for `Cc1cc(S(=O)(=O)N[C@@H]2CCC[C@@H]2O)ccc1-c1ccc2[nH]nc(N)c2c1C` [Example 18, 4-(3-amino-4-methyl-1H-indazol-5-yl)-N-((1R,2S)-2-hydroxycyclopentyl)-3-methylbenzenesulfonamide], the concentration giving a half-maximal response (EC50) in test [1] (setting [6]) was determined as 2.52 µM; in test [2] (setting [7]), 2.53 µM; in test [3] (setting [8]), 0.468 µM; in test [4] (setting [9]), 1.06 µM.

`C[C@@H](O)c1nc2cnc3[nH]ccc3c2n1[C@H]1CCCOC1` [reference compound]: the EC50 in test [1] (setting [10]) came out at 3.31 µM; in test [2] (setting [11]), 4.32 µM; in test [3] (setting [12]), 0.82 µM; in test [4] (setting [13]) it was 4.19 µM.

`COc1ccc(-c2nc3c(NCC4CCNCC4)c(Cl)cnc3[nH]2)c(F)c1` [reference compound]: the half-maximal effective concentration (EC50) was determined as 0.47 µM in test [1] (setting [10]), 1.15 µM in test [2] (setting [11]), 0.51 µM in test [3] (setting [12]) and 0.08 µM in test [4] (setting [13]).

Take `CCC1(O)CC(NS(=O)(=O)c2ccc(-c3ccc4[nH]nc(N)c4c3C)c(C)c2)C1` (stereo not shown) [Example 49, 4-(3-amino-4-methyl-1H-indazol-5-yl)-N-(3-ethyl-3-hydroxycyclobutyl)-3-methylbenzenesulfonamide]: the EC50 was 3.04 µM in test [1] (setting [6]), 2.23 µM in test [2] (setting [7]), 0.852 µM in test [3] (setting [8]) and 2.78 µM in test [4] (setting [9]).

For the molecule `C[C@@H](O)c1nc2cnc3[nH]ccc3c2n1[C@H]1CC[C@H](C#N)CC1` [reference compound], the EC50 in test [1] (setting [10]) was determined as 4.27 µM; in test [2] (setting [11]) it was 6.62 µM; in test [3] (read-out: Scx-Luc (EC50 uM)), 2.69 µM; in test [4] (setting [13]), 6.38 µM.

On to `N#CCNC(=O)c1ccc(-c2ccnc(Nc3ccc(N4CCOCC4)cc3)n2)cc1` [reference compound], for which the concentration for a half-maximal effect (EC50) worked out at 3.92 µM in test [1] (setting [10]), 4.67 µM in test [2] (setting [11]), 0.12 µM in test [3] (setting [12]) and 3.27 µM in test [4] (setting [13]).

On to `Cc1cc(S(=O)(=O)NC2CC(O)(C3CC3)C2)ccc1-c1ccc2[nH]nc(N)c2c1C` (stereo not shown) [Example 50, 4-(3-amino-4-methyl-1H-indazol-5-yl)-N-(3-cyclopropyl-3-hydroxycyclobutyl)-3-methylbenzenesulfonamide], for which the EC50 in test [1] (setting [6]) stood at 3.26 µM; in test [2] (setting [7]), 2.01 µM; in test [3] (setting [8]), 1.29 µM; in test [4] (setting [9]), 7.38 µM.

Consider `O=C(Nc1nc2cccc(-c3ccc(CN4CCS(=O)(=O)CC4)cc3)n2n1)C1CC1` [reference compound], for which the EC50 in test [1] (setting [14]) was 5.34 µM; in test [2] (setting [15]), 5.01 µM; in test [3] (read-out: Scx-Luc (EC50 uM)) it was 4.32 µM; in test [4] (setting [16]), 6.93 µM.

For `Cc1cc(S(=O)(=O)N2CC[C@@H](O)C2)ccc1-c1ccc2[nH]nc(N)c2c1C` [Example 4, (R)-1-((4-(3-amino-4-methyl-1H-indazol-5-yl)-3-methylphenyl)sulfonyl)pyrrolidin-3-ol], the EC50 in test [1] (setting [6]) is 1.64 µM; in test [2] (setting [7]), 1.55 µM; in test [3] (setting [8]) it was 0.511 µM; in test [4] (setting [9]) it was 0.513 µM.

For `Cc1cc(S(=O)(=O)N[C@H]2C[C@@](C)(O)C2)ccc1-c1ccc2[nH]nc(N)c2c1C` [Example 40, 4-(3-amino-4-methyl-1H-indazol-5-yl)-N-((1s,3s)-3-hydroxy-3-methylcyclobutyl)-3-methylbenzenesulfonamide], the EC50 in test [1] (setting [6]) is 2.69 µM; in test [2] (setting [7]), 1.82 µM; in test [3] (setting [8]) it was 0.988 µM; in test [4] (setting [9]), 2.92 µM.

Turning to `Cc1cc(S(=O)(=O)N[C@H]2C[C@@H](O)C2)ccc1-c1ccc2[nH]nc(N)c2c1C` [Example 12, 4-(3-amino-4-methyl-1H-indazol-5-yl)-N-((1s,3s)-3-hydroxycyclobutyl)-3-methylbenzenesulfonamide], the EC50 in test [1] (setting [6]) came out at 1.73 µM; in test [2] (setting [7]), 10 µM; in test [3] (setting [8]) it was 2.21 µM; in test [4] (setting [9]) it was 10 µM.

Consider `Cc1cc(S(=O)(=O)N2CCC(O)CC2)ccc1-c1ccc2[nH]nc(N)c2c1C` [Example 14, 1-((4-(3-amino-4-methyl-1H-indazol-5-yl)-3-methylphenyl)sulfonyl)piperidin-4-ol], for which the concentration for a half-maximal effect (EC50) amounted to 7.28 µM in test [1] (setting [6]), 2.64 µM in test [2] (setting [7]), 3.92 µM in test [3] (setting [8]) and 6.97 µM in test [4] (setting [9]).

As for `C[C@@H](O)c1nc2cnc3[nH]ccc3c2n1[C@@H]1CCCOC1` [reference compound], the EC50 in test [1] (setting [10]) was 0.08 µM; in test [2] (setting [11]) it was 4.66 µM; in test [3] (read-out: Scx-Luc (EC50 uM)), 1.34 µM; in test [4] (setting [13]), 6.11 µM.

On to `C1=C/COCc2cc(ccc2OCCN2CCCC2)Nc2nccc(n2)-c2cccc(c2)COC/1` [reference compound], for which the EC50 in test [1] (setting [10]) is 3.32 µM; in test [2] (setting [11]) it was 3.11 µM; in test [3] (read-out: Scx-Luc (EC50 uM)), 1.06 µM; in test [4] (setting [13]), 6.71 µM.

Regarding `Cc1cc(S(=O)(=O)N2CC[C@H](O)C2)ccc1-c1ccc2[nH]nc(N)c2c1C` [Example 5, (S)-1-((4-(3-amino-4-methyl-1H-indazol-5-yl)-3-methylphenyl)sulfonyl)pyrrolidin-3-ol], the 50% effective concentration (EC50) in test [1] (setting [6]) is 3.62 µM; in test [2] (setting [7]) it was 2.63 µM; in test [3] (setting [8]) it was 0.275 µM; in test [4] (setting [9]), 1.6 µM.

Take `N#CC[C@H](C1CCCC1)n1cc(-c2ncnc3[nH]ccc23)cn1` [reference compound]: the EC50 in test [1] (setting [14]) was 3.13 µM; in test [2] (setting [15]) it was 2.64 µM; in test [3] (read-out: Scx-Luc (EC50 uM)), 0.12 µM; in test [4] (setting [16]), 0.74 µM.

Regarding `Cc1cc(S(=O)(=O)N2CCC[C@H]2CO)ccc1-c1ccc2[nH]nc(N)c2c1C` [Example 19, (S)-(1-((4-(3-amino-4-methyl-1H-indazol-5-yl)-3-methylphenyl)sulfonyl)pyrrolidin-2-yl)methanol], the EC50 was found to be 10 µM in test [1] (setting [6]), 10 µM in test [2] (setting [7]), 0.431 µM in test [3] (setting [8]) and 10 µM in test [4] (setting [9]).

With `Cc1cc(S(=O)(=O)N[C@H]2C[C@](O)(C(F)(F)F)C2)ccc1-c1ccc2[nH]nc(N)c2c1C` [Example 31, 4-(3-amino-4-methyl-1H-indazol-5-yl)-N-((1s,3s)-3-hydroxy-3-(trifluoromethyl)cyclobutyl)-3-methylbenzenesulfonamide], the EC50 in test [1] (setting [6]) came out at 5.54 µM; in test [2] (setting [7]), 4.18 µM; in test [3] (setting [8]) it was 0.126 µM; in test [4] (setting [9]), 3.77 µM.

Take `Cc1cc(S(=O)(=O)N[C@@H]2CCCC[C@H]2O)ccc1-c1ccc2[nH]nc(N)c2c1C` [Example 16, 4-(3-amino-4-methyl-1H-indazol-5-yl)-N-((1R,2R)-2-hydroxycyclohexyl)-3-methylbenzenesulfonamide]: the EC50 in test [1] (setting [6]) was determined as 1.75 µM; in test [2] (setting [7]), 0.557 µM; in test [3] (setting [8]), 0.638 µM; in test [4] (setting [9]), 0.447 µM.

Take `Cc1c(-c2ccc(S(=O)(=O)N[C@H]3C[C@](O)(C(F)(F)F)C3)cc2Cl)ccc2[nH]nc(N)c12` [Example 55, 4-(3-amino-4-methyl-1H-indazol-5-yl)-3-chloro-N-((1s,3s)-3-hydroxy-3-(trifluoromethyl)cyclobutyl)benzenesulfonamide]: the EC50 stood at 3.14 µM in test [1] (setting [6]), 3.5 µM in test [2] (setting [7]), 0.228 µM in test [3] (setting [8]) and 5.5 µM in test [4] (setting [9]).

With `Cc1c(-c2ccc(S(=O)(=O)N[C@H]3C[C@@H](O)C3)cc2Cl)ccc2[nH]nc(N)c12` [Example 34, 4-(3-amino-4-methyl-1H-indazol-5-yl)-3-chloro-N-((1s,3s)-3-hydroxycyclobutyl)benzenesulfonamide], the concentration for a half-maximal effect (EC50) stood at 1.54 µM in test [1] (setting [6]), 5.92 µM in test [2] (setting [7]), 0.614 µM in test [3] (setting [8]) and 0.078 µM in test [4] (setting [9]).

With `CCS(=O)(=O)N1CC(CC#N)(n2cc(-c3ncnc4[nH]ccc34)cn2)C1`, the IC50 (usually the concentration that gives 50% inhibition) in test [5] is 0.03 µM.
